Data published in article PMC11643677, “In Silico Prediction of Alkaline Phosphatase Interaction with the Natural Inhibitory 5-Azaindoles Guitarrin C and D” (Molecules, 2024).
Entries after “also recorded” stand apart in the source; their conditions may differ.

Tests used:
ALP = tested on: ALP; parameters: method as in PMID 25694083, PMID 37274413, PMID 36362051; details: standard inhibitory ligands of ALP ref 17-19; cited from earlier work
[1] = target: Vibrio splendidus alkaline phosphatase (VAP); parameters: method as in PMID 33102813; details: cited from earlier work
[2] = target: T1, alkaline phosphatase CmAP (Cobetia amphilecti, UniProt Q1W622); experiment: Inhibitory activity assay and kinetics on alkaline phosphatase CmAP (pNPP hydrolysis); format: biochemical, Cobetia amphilecti KMM 296; details: for IC50: 2 mM pNPP, 0.1 M Tris-HCl pH 10.0, 0.2 M KCl, 37 °C, 60 min preincubation, mean of three ± SD; for residual activity: at maximum inhibition; for Ki: by the Cheng–Prusoff formula Ki = IC50/(1 + [S]/Km); for type of inhibition: pNPP substrate; for Vmax in the presence of inhibitor: pNPP, guitarrin C 52.0 µM, guitarrin D 96.0 µM, 60 min preincubation at 23 °C, without inhibitor 5.98 ± 0.03
T1 sequence (Q1W622 entry or part of it): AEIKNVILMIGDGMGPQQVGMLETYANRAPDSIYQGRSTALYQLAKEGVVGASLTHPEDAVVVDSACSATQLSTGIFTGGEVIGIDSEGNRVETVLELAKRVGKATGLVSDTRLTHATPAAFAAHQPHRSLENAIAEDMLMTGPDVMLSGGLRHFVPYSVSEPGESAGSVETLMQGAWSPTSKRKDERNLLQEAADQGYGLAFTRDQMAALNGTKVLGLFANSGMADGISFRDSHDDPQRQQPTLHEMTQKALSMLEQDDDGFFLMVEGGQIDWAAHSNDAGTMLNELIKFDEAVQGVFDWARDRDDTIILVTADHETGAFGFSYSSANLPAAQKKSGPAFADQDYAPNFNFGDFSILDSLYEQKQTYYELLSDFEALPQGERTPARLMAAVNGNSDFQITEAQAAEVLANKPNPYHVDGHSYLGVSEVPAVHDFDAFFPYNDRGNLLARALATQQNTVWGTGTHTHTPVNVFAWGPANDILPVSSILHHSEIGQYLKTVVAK
Method: (§1) The enzymatic activity was evaluated through the addition of 5 μL of the protein solution sample to a solution of 495 μL buffer, comprising 0.1 M Tris-HCl (pH 10.0), 0.2 M KCl, and 2 mM pNPP. The reaction mixture was incubated at 37 °C for a period of 30 min. To halt the reaction, 2 mL of chilled 0.5 M NaOH was introduced. The quantity of p-nitrophenol (pNP) produced was quantified spectrophotometrically at a wavelength of 400 nm, with the control sample, which lacked the enzyme, serving as a reference point. The specific activity was calculated using the following formula: (2.5 × OD400)/(18.6 × 0.005 × t × C), where OD400 is the optical density at a wavelength of 400 nm, 2.5 is the volume of the reaction mixture in mL, 18.6 is the extinction coefficient of pNP (M^−1/cm^−1), t is the incubation time at 37 °C in minutes, 0.005 is the sample volume in mL, and C is the protein concentration in the sample (mg/mL). The quantity of enzyme required for the generation of 1 µM pNP within a one-minute period was established as the unit of activity.
(§2) The effect of the natural inhibitors guitarrins C and D [33] on the activity of the alkaline phosphatases CmAP from C. amphilecti KMM 296 and calf intestinal alkaline phosphatase (CIAP, Invitrogen™ 18009019, Thermo Fisher Scientific, Waltham, MA, USA) was investigated in a buffer containing 0.1 M tris-HCl (pH 10.0) with 0.2 KCl. […] The activity of ALPs was determined using the standard method described above. CmAP (3.22 mg/mL, 2929 U/mg) and CIAP (0.99 mg/mL, 647 U/mg) were dissolved in 50 mM tris-HCl (pH 8.0) buffer with 2 mM MgCl2. Results were presented as the percentage of inhibition relative to control activity. The IC50 for each compound tested was defined as the concentration of compound that inhibited the enzyme activity by 50%. IC50 values are given as the mean of three experiments and standard deviation.
(§3) The kinetic parameters (Km and Vmax) were determined for alkaline phosphatases CmAP and CIAP. The mean Km values and standard deviations were presented. […] The inhibition constant, Ki, was determined using the Cheng–Prusoff formula [51]. The binding activity of the inhibitor to the reactive substrate (Ki) can be calculated using the following formula: Ki = IC50/(1 + [S]/Km), where IC50 is the functional activity of the inhibitor, [S] is the concentration of the reactive substrate, and KM is the Michaelis constant. The results were presented in the Origin 7.0 software.

[3] = target: T1, alkaline phosphatase CmAP; parameters: method as in PMID 31181923; details: cited from earlier work; for affinity relative to the chelator EDTA: CmAP, higher affinity than EDTA ref 33; for inhibitory activity against CmAP: previous study ref 33
[4] = target: T2, calf intestinal alkaline phosphatase (CIAP) (Bos taurus, UniProt P19111); experiment: Inhibitory activity assay on calf intestinal alkaline phosphatase (pNPP hydrolysis); format: biochemical; details: for IC50: 2 mM pNPP, 0.1 M Tris-HCl pH 10.0, 0.2 M KCl, 37 °C, 60 min preincubation, mean of three ± SD; for Ki: by the Cheng–Prusoff formula Ki = IC50/(1 + [S]/Km)
T2 construct: purchased Invitrogen, Thermo Fisher Scientific 18009019
T2 sequence (P19111 20-506 limits assumed): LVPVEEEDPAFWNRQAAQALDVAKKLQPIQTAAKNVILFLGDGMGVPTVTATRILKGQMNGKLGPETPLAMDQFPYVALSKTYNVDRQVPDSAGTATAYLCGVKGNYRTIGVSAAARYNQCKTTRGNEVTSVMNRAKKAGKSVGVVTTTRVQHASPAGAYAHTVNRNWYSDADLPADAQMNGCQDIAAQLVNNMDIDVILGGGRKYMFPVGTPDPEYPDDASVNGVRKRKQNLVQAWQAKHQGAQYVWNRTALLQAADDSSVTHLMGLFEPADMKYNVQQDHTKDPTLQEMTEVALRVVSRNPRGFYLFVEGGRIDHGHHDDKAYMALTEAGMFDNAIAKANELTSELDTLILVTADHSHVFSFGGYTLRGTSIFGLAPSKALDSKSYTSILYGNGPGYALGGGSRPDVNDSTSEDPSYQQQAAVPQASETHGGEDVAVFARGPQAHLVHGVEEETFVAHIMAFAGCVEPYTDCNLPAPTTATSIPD
Method: as §1, §2, §3

For N[C@@H](Cc1ccccc1)C(=O)O [L-phenylalanine], the IC50 (ALP) is given as 80 µM.

In the case of NC1CCCCC1 [cyclohexylamine], the IC50 ([1]; VAP ref 27) is given as 35700 µM, the “Michaelis–Menten constant in the presence of inhibitor (unchanging)” value ([1]; VAP ref 27) is given as 195 ± 4 µM and the type of inhibition ([1]; VAP ref 27) is given as “non-competitive”. The Ki ([1]; VAP, Ki equal to IC50 ref 27) was 35700 µM.

For O=C(O)c1cc2[nH]ccc2c(CO)n1 [guitarrin C], the “maximum inhibition of activity” value [2] was 85%, the IC50 [2] was 8.5 ± 0.08 µM and the residual activity [2] was 15%. The Ki [2] was 1.58 ± 0.04 µM, the “activity relative to guitarrin D” value ([2]; more active) was 10 fold and the type of inhibition [2] was “non-competitive”. The “Vmax in the presence of inhibitor” value [2] was 2.62 ± 0.02 U mL^−1, the “affinity relative to the chelator EDTA” value [3] was 1000 fold and the “inhibitory activity against CmAP” value [3] was “pronounced inhibitory activity”. The “maximum inhibition of activity” value [4] was 57%, the IC50 [4] was 195 ± 2.2 µM and the Ki [4] was 38 ± 0.1 µM. For the same molecule, the type of inhibition ([4]; pNPP substrate) was “non-competitive”.

For O=C(O)c1nc(CO)c2cc[nH]c2c1O [guitarrin D], the “maximum inhibition of activity” value [2] was 85%, the IC50 [2] was 110 ± 0.8 µM and the residual activity [2] was 15%. For the same molecule, the Ki [2] was 20.56 ± 0.06 µM, the type of inhibition [2] was “mixed type of inhibition” and the “Vmax in the presence of inhibitor” value [2] was 3.98 ± 0.02 U mL^−1. The “decrease in Vmax” value ([2]; with versus without inhibitor) was “more than 2 fold”, the “affinity relative to the chelator EDTA” value [3] was 100 fold and the “inhibitory activity against CmAP” value [3] was “pronounced inhibitory activity”. The “difference in inhibitory activity compared to guitarrin C” value [4] was 1.2 fold, the “maximum inhibition of activity” value [4] was 57% and the IC50 [4] was 230 ± 1.6 µM. For the same molecule, the Ki [4] was 45 ± 0.2 µM.

For c1ccc([C@H]2CN3CCSC3=N2)cc1 [levamisole], the IC50 (ALP) is listed as 19 µM.

For Cn1c(=O)c2[nH]cnc2n(C)c1=O [theophylline], the IC50 (ALP) is given as 47 µM and the Ki (ALP) is given as 91 µM.

In the case of guitarrin A, the “inhibitory activity against CmAP” value [3] is listed as “no inhibitory activity; also recorded: non-inhibitory”.

In the case of guitarrin E, the “inhibitory activity against CmAP” value [3] is listed as “no inhibitory activity; also recorded: non-inhibitory”.
